Legend:
BAX R145E = target: T1, BAX R145E (Homo sapiens, UniProt Q07812, R145E); assay: Liposomal release assay, BAX R145E mutant; type: biochemical; conditions: 250 nM BAX, 5 nM tBID
T1 construct: Human full-length (1-192) wild-type BAX (Q07812); made in house; host or cells: E. coli BL21 (DE3) CodonPlus (DE3)-RIPL
Description: (§1) Liposomes were formed by extrusion of the suspension using Avanti Mini-Extruder (cat #610000) with polycarbonate membranes of 0.1 μm pore size (Avanti Polar Lipids). ANTS/DPX encapsulated liposomes were purified from non-encapsulated ANTS/DPX by gel filtration of a 10 mL CL2B-Sepharose (GE Healthcare Life Sciences) gravity flow column. […] Reactions were initiated by the addition of 10 μL of the encapsulated ANTS/DPX liposome stock. ANTS/DPX release was quantified based on the increase in fluorescence intensity that occurs when the ANTS fluorophore is separated from the DPX quencher upon release from the liposomes into solution. Fluorescence (λex=355 nm and λem=520 nm) was measured at 1-minute intervals at room temperature (22-25° C.) indicated using a Tecan Infinite M1000 plate reader. In the case of heat activation, reactions were setup as described in the absence of tBID or BIM, and experiments were recorded at 42° C. The percentage release of ANTS/DPX at any given time point was calculated as percentage release=((F−F0)/(F100−F0))(100), where F0 and F100 are baseline and maximal fluorescence, respectively. Triton X-100 (1%) was used to determine the maximum amount of liposomal release per assay and was set to 100%.

BAX−/−MEFs = assay: STS-induced caspase 3/7 assay in BAX-/- MEFs; type: cell-based, mouse; conditions: MEFs expressing only BAK, 3 μM STS, 6 hr
Text: FIGS. 9a, 9b, 9c, 9d, 9e, and 9f are a set of diagrams showing that eltrombopag inhibits BAX translocation and BAX-mediated apoptosis in cells. […] BAX translocation is based on antibody-based detection of BAX and mitochondrial protein TOMM20. Representative confocal micrographs from three independent biological experiments. Scale bar, […]. […] Data represent ±SEM of three independent biological replicates. Two-sided t test, ****P<0.0001; ***P<0.001; **P<0.01; *P<0.05; ns, P>0.05. […] Actin and VDAC are loading controls for cytosolic and mitochondrial fractions, respectively. FIGS. 9d and 9e show a caspase 3/7 assay of BAK−/− mouse embryonic fibroblasts (MEFs) (FIG. 9d) and BAX−/−MEFs (FIG. 9e) in response to 3 μM STS and the presence or absence of various doses of EO for 6 hr. Data represent mean of n=3±SEM and are representative of three independent experiments. Two-sided t-test, **** P<0.0001; ***P<0.001;**P<0.01; *P<0.05; ns, P>0.05. […] Data represent mean of n=3±SEM.

BAX R134E R145E = target: T2, BAX R134E R145E (Homo sapiens, UniProt Q07812, R134E/R145E); assay: Liposomal release assay, BAX R134E R145E mutant; type: biochemical; conditions: 250 nM BAX, 5 nM tBID; read-out: IC50, inhibition of liposomal release
T2 construct: Human full-length (1-192) wild-type BAX (Q07812); made in house; host or cells: E. coli BL21 (DE3) CodonPlus (DE3)-RIPL
Description: as §1

BAX [1] = target: T3, BAX (Homo sapiens, UniProt Q07812); assay: Competitive fluorescence polarization binding assay (FITC-BIM-SAHB displacement from BAX)
T3 construct: Human full-length (1-192) wild-type BAX (Q07812); made in house; host or cells: E. coli BL21 (DE3) CodonPlus (DE3)-RIPL
Description: Fluorescence polarization assays (FPA) were performed as previously described (Reyna, D. E., et al. Cancer Cell 32 490-505 (2017)). Direct binding isotherms of BIM-SAHB were measured by incubated FITC-BIM-SAHB (25 nM) with serial dilutions of full-length BAX alone or in the presence of 0.5 or 1 μM EO. Competition binding assays were performed by titrating EO into BAX (150 nM) and FITC-BIM-SAHB (25 nM). Measurements were taken at 10-minute intervals over 60 minutes on a TECAN F200 PRO microplate reader. Reported curves represent a 10-minute time point. KD values and IC50 were determined using GraphPad Prism nonlinear fit four-parameter agonist or antagonist versus response with restraints for 100% and 0% bound calculated by the mP of saturated BAX+FITC-BIM-SAHB and FITC-BIM-SAHB alone.

15N-labeled BAX = target: T4, 15N-labeled BAX (Homo sapiens, UniProt Q07812); assay: 1H-15N HSQC NMR chemical shift perturbation; type: binding
T4 construct: Human full-length (1-192) wild-type BAX (Q07812); made in house; host or cells: E. coli BL21 (DE3) CodonPlus (DE3)-RIPL
Description: The uniformly ^15N-labeled protein samples were prepared by growing the bacteria in the minimal medium, as previously described (Uchime, O., et al. J Biol Chem 291, 89-102, (2016)). Unlabeled and ^15N-labeled protein samples were prepared in 50 mM potassium phosphate, 50 mM NaCl solution at pH 6.0 in 10% D20. All experiments were performed using an independent sample for each experimental measurement as a 400 μL sample in a 5-mm Shigemi; all samples were DMSO matched with 2% d6-DMSO. Correlation ^1H-^15N-HSQC spectra were recorded on ^15N-labeled BAX at 50 μM in the presence and absence of 100 μM of EO. NMR spectra were acquired at 25° C. on a Bruker 600 MHz spectrometer equipped with a cryoprobe, processed using TopSpin and analyzed using NMRView. […] The weighted average chemical shift perturbation (CSP) was calculated as √(L1δ^1H)^2+(L1δ^15N/5)^2)/2 in p.p.m. […] The significance threshold for backbone amide chemical shift changes was calculated based on the average chemical shift across all residues plus 0.5 or 1 s.d. Solvent-accessible surface area was probed by the addition of 10 mM hy-TEMPO (sigma) to 50 μM ^15N-labeled BAX with and without 100 μM EO measured using standard ^1H-^15N-HSQC with an increased recycle delay of 2 sec. PRE was calculated as the ratio of peak intensities of BAX in the presence of hy-TEMPO to BAX without hy-TEMPO (% intensity). […]

BAX [2] = target: T3, BAX; assay: Liposomal permeabilization (release) assay; type: biochemical; conditions: compared with EO
Description: as §1

platelets [3] = conditions: platelets isolated from treated patients; cited from earlier work
platelets [4] = assay: Navitoclax-induced thrombocytopenia, platelet counts; type: in vivo, C57BL/6J mice; conditions: ABT-263 25 mg/kg single dose, oral gavage, within 24 hr

T3 sequence (Q07812 whole entry): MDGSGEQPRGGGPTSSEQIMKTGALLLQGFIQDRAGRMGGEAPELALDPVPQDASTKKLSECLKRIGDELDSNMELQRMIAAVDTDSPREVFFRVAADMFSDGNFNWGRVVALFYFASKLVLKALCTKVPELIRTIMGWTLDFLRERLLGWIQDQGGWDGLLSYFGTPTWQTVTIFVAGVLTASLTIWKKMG
T4 sequence (Q07812 whole entry): as above
T1 sequence (Q07812 whole entry R145E): as the sequence (Q07812 whole entry) above, with R145E counted along it
T2 sequence (Q07812 whole entry R134E/R145E): as the sequence (Q07812 whole entry) above, with R134E, R145E counted along it

With `CC1=NN(c2ccc(C)c(C)c2)C(=O)/C1=N\Nc1cccc(-c2cccc(C(=O)O)c2)c1O` [EO, eltrombopag] the “IC50 relative to BAX WT” value (BAX R145E) was “more than double that of BAX WT”, the “STS-induced apoptosis mediated by caspase 3/7 activity” value (BAX−/−MEFs) was “no effect” and the IC50 (BAX R134E R145E) was over 10 µM.
With `COC(=O)c1cccc(-c2cccc(NN=C3C(=O)N(c4ccc(C)c(C)c4)N=C3C)c2O)c1` [EO-Methyl Ester, eltrombopag methyl ester] the IC50 (BAX [1]; BAX 150 nM, FITC-BIM-SAHB 25 nM, read-out: IC50, competition of FITC-BIM-SAHB by FPA) was over 5 µM, the “chemical shift perturbations of 15N-labeled BAX” value (15N-labeled BAX) was “minimal CSPs” and the “inhibition of BAX in liposomal release assays” value (BAX [2]) was “significantly diminished inhibition”.
In the case of romiplostim, the “resistance of patient platelets to ABT-263 (Navitoclax) induced cell death” value (platelets [3]) is listed as “not observed”.
With `COc1c(NN=C2C(=O)N(c3cccc([N+](=O)[O-])c3)N=C2C)cccc1-c1cccc(C(=O)O)c1` [EO-2, 2′-methoxy-3′-(2-(3-methyl-1-(3-nitrophenyl)-5-oxo-1,5-dihydro-4H-pyrazol-4-ylidene)hydrazineyl)-[1,1′-biphenyl]-3-carboxylic acid] the “competitive binding to the BAX trigger site (FP)” value (BAX [1]; FIG. 7a) was “competitive binding”.
For `CC1(C)CCC(c2ccc(Cl)cc2)=C(CN2CCN(c3ccc(C(=O)NS(=O)(=O)c4ccc(N[C@H](CCN5CCOCC5)CSc5ccccc5)c(S(=O)(=O)C(F)(F)F)c4)cc3)CC2)C1` [navitoclax], the platelet loss (platelets [4]) was “significant platelet loss”.
